Details: pH 7.4
Procedure: HFA-exposed TFF ITZ powder (1 mg) was added to 50 mL of dissolution media to yield an initial drug loading of 20 μg/mL. Sample aliquots (1.5 mL) were taken from the dissolution vessels at various time points. The aliquots were filtered immediately using a 0.2 μm syringe filter. […] TFF ITZ powder that had been previously exposed to HFA 227 (1 mg) was added to the dissolution media (50 mL) to achieve an initial loading of 20 μg ITZ/mL. All samples were filtered with 0.2 μm pore size filters.

CCC(C)n1ncn(-c2ccc(N3CCN(c4ccc(OCC5COC(Cn6cncn6)(c6ccc(Cl)cc6Cl)O5)cc4)CC3)cc2)c1=O (stereo not shown) [crystalline ITZ, itraconazole]
equilibrium solubility: 1.4 µg/mL

Reference: patent US12029816B2, “Compositions and methods of making brittle-matrix particles through blister pack freezing” (BOARD OF REGENTS, THE UNIVERSITY OF TEXAS SYSTEM, priority 2010, dated 2024)
